{"source": "patent US20130030007A1", "about": "“Obesity Small Molecules” (AKRON MOLECULES GMBH, priority 2010, published 2013)", "origin": "cited, not measured here", "note": "Structures can show the parent of a compound that is named as a salt. Starred links: 1 amine or outer side, 2 acyl side, 3 side chain; linkers in the order of their positions; H or OH if unused. Positions of bridges follow the written chain, without caps; N, C: chain ends. Non-standard residues stand in square brackets, D forms with d. Residues, ends and D or L forms follow the SMILES beside them. Adda = CO[C@@H](Cc1ccccc1)[C@@H](C)/C=C(C)/C=C/[C@H](N[*:1])[C@H](C)C(=O)[*:2]; dAsp(3S-Me) = C[C@H](C(=O)[*:3])[C@@H](N[*:1])C(=O)[*:2]; d(γGlu) = O=C(O)[C@@H](CCC(=O)[*:2])N[*:1]; NMeDha = C=C(NC)C(=O)O", "data": [{"test_system": "human ortholog of Drosophila obesity gene", "set-up": "key: O: Obesity - obesity pathway interaction; B: validated binding partner", "conditions": "cited from earlier work", "values": [{"molecule": "CC(NC(N)=O)c1cc2ccccc2s1", "note": "(centres unmarked) [N-dehydroxyzileuton]", "Type: Type of interaction": "O"}, {"molecule": "CC(=O)O[C@]1(C(C)=O)CC[C@H]2[C@@H]3C[C@H](C)C4=CC(=O)CC[C@]4(C)[C@H]3CC[C@@]21C", "note": "[Medroxyprogesterone 17-Acetate]", "Type: Type of interaction": "B"}, {"molecule": "O=C1NC(=O)C2C3C=CC(C3)C12", "note": "(centres unmarked) [noreximide]", "Type: Type of interaction": "O"}, {"molecule": "Oc1ccc2c3c1O[C@H]1c4[nH]c5ccccc5c4C[C@@]4(O)[C@@H](C2)N(CC2CC2)CC[C@]314", "note": "[naltrindole]", "Type: Type of interaction": "B"}, {"molecule": "COc1cccc(-c2cc(=O)c3ccccc3o2)c1N", "note": "[PD 98059]", "Type: Type of interaction": "B"}, {"molecule": "C[C@@H]1C[C@H]2O[C@@H]2/C=C\\C=C\\C(=O)Cc2c(Cl)c(O)cc(O)c2C(=O)O1", "note": "[Monorden]", "Type: Type of interaction": "B"}, {"molecule": "melitten", "Type: Type of interaction": "O"}, {"molecule": "Cc1cc(O)c2c(=O)c3c(O)cc(O)c4c5c(O)cc(O)c6c(=O)c7c(O)cc(CO)c8c1c2c(c34)c(c65)c78", "note": "[Pseudohypericin]", "Type: Type of interaction": "O"}, {"molecule": "CN(C)CC1CCCCC1(O)c1cccc(O)c1", "note": "(centres unmarked) [O-demethyltramadol]", "Type: Type of interaction": "O"}, {"molecule": "CSc1ncnc2c1ncn2[C@@H]1O[C@H](CO)[C@@H](O)[C@H]1O", "note": "[Methylthioinosine]", "Type: Type of interaction": "B"}, {"molecule": "C=C1C(=O)N[C@H](C)C(=O)N[C@@H](CC(C)C)C(=O)N[C@@H](C(=O)O)[C@H](C)C(=O)N[C@@H](CCCNC(=N)N)C(=O)N[C@@H](/C=C/C(C)=C/[C@H](C)[C@H](Cc2ccccc2)OC)[C@H](C)C(=O)N[C@@H](C(=O)O)CCC(=O)N1C", "note": "[MCYST-LR] (R[Adda][d(γGlu)][NMeDha][dA]L[dAsp(3S-Me)]-OH; lactam N-7)", "Type: Type of interaction": "O"}, {"molecule": "CCCc1cc(=O)[nH]c(=S)[nH]1", "note": "[Procasil]", "Type: Type of interaction": "O"}, {"molecule": "CNC[C@H](O)c1cccc(O)c1", "note": "[Mesaton]", "Type: Type of interaction": "B"}, {"molecule": "CN1CC[C@]23c4c5ccc(O[C@@H]6O[C@H](C(=O)O)[C@@H](O)[C@H](O)[C@H]6O)c4O[C@H]2[C@@H](O)C=C[C@H]3[C@H]1C5", "note": "[morphine-3-glucuronide]", "Type: Type of interaction": "B"}, {"molecule": "Oc1ccccc1OC(c1ccccc1)C1CNCCO1", "note": "(centres unmarked) [O-desethylreboxetine]", "Type: Type of interaction": "B"}]}, {"test_system": "human ortholog of Drosophila obesity gene", "set-up": "key: O: Obesity - obesity pathway interaction; B: validated binding partner", "conditions": "interaction of the small molecule with the human ortholog(s) / Drosophila gene(s) listed in the same table line; cited from earlier work", "values": [{"molecule": "CO[C@@H]1C[C@@H](C[C@H]2CC[C@H](C)[C@H]([C@@H](C)C(=O)O)O2)O[C@]2(O[C@](C)([C@H]3CC[C@@](C)([C@@H]4O[C@@H]([C@H]5O[C@@](O)(CO)[C@H](C)C[C@@H]5C)C[C@@H]4C)O3)C[C@H]2C)[C@@H]1C", "note": "[Nigericin]", "Type: Type of interaction": "O"}, {"molecule": "CC#C[C@]1(O)CC[C@H]2[C@@H]3CCC4=CC(=O)CCC4=C3[C@@H](c3ccc(N(C)C)cc3)C[C@@]21C", "note": "[Mifepristone]", "Type: Type of interaction": "B"}, {"molecule": "C=CCN1CC[C@]23c4c5ccc(O)c4O[C@H]2C(=O)CC[C@@]3(O)[C@H]1C5", "note": "[Naloxone]", "Type: Type of interaction": "O"}, {"molecule": "Cc1ccnc2c1NC(=O)c1cccnc1N2C1CC1", "note": "[Nevirapine]", "Type: Type of interaction": "O"}, {"molecule": "CCCCN1C[C@H](O)[C@@H](O)[C@H](O)[C@H]1CO", "note": "[miglustat]", "Type: Type of interaction": "O"}, {"molecule": "O=c1c(-c2ccc(O)cc2)coc2cc(O)cc(O)c12", "note": "[NPI 031L]", "Type: Type of interaction": "B"}, {"molecule": "COC1=C(CC(C)OC(=O)c2cc(Cl)c(O)cc2O)C(=O)C(NC=O)=CC1=O", "note": "(centres unmarked) [radester]", "Type: Type of interaction": "O"}, {"molecule": "COCCCN1CCC(NC(=O)c2cc(Cl)c(N)c3c2OCC3)CC1", "note": "[prucalopride]", "Type: Type of interaction": "O"}, {"molecule": "CC(C)=CCC/C(C)=C/CC/C(C)=C/CC/C(C)=C/CC1=C(C)C(=O)c2ccccc2C1=O", "note": "[Menatetrenone]", "Type: Type of interaction": "O"}, {"molecule": "C#C[C@]1(O)CC[C@H]2[C@@H]3CCC4=CC(=O)CC[C@@H]4[C@H]3CC[C@@]21C", "note": "[Norethindrone]", "Type: Type of interaction": "O"}, {"molecule": "Nc1ccc(N2C(=O)C=CC2=O)cc1", "note": "[N-(4-aminophenyl)maleimide]", "Type: Type of interaction": "O"}, {"molecule": "COc1ccccc1N1CCN(CCCCN2C(=O)c3ccccc3C2=O)CC1", "note": "[NAN-190 hydrobromide]", "Type: Type of interaction": "B"}, {"molecule": "O=C1NC(=O)C(c2ccccc2)(c2ccccc2)N1", "note": "[Phenytoin]", "Type: Type of interaction": "B"}, {"molecule": "CCC1(c2ccccc2)C(=O)NCNC1=O", "note": "[Primidone]", "Type: Type of interaction": "B"}]}]}
